According to PubChem BioAssay AID1963966 (Molecular Pharmacology Branch, DTP, NCI, 2024):

Test system: 935938-334-R-J1-PDC spheroids with HUVEC/MSC, viability
Assay: Anticancer human tumor 935938-334-R-J1-PDC patient-derived small intestine adenocarcinoma cell line growth inhibition [PI3K]
Conditions: for IC50: curve of first compound; for viability, T/C: stronger effect = lower value
Method in brief: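 Complex 3D spheroids (cancer cells + endothelial HUVEC + mesenchymal stem cells); drug pairs of targeted agent x inavolisib/alpelisib/duvelisib/copanlisib; half-log series from ~Cmax, max 10 microM if Cmax unknown; endpoint viability.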

[1] = second compound 0.0316 µM, first compound 0.0316 µM
[2] = second compound 0.0316 µM, first compound 0.1 µM
[3] = second compound 0.0316 µM, first compound 0.316 µM
[4] = second compound 0.0316 µM, first compound 1 µM
[5] = second compound 0.0316 µM, first compound 3.16 µM
[6] = second compound 0.0316 µM, first compound 10 µM
[7] = second compound 0.1 µM, first compound 0.0316 µM
[8] = second compound 0.1 µM, first compound 0.1 µM
[9] = second compound 0.1 µM, first compound 0.316 µM
[10] = second compound 0.1 µM, first compound 1 µM
[11] = second compound 0.1 µM, first compound 3.16 µM
[12] = second compound 0.1 µM, first compound 10 µM
[13] = second compound 0.316 µM, first compound 0.0316 µM
[14] = second compound 0.316 µM, first compound 0.1 µM
[15] = second compound 0.316 µM, first compound 0.316 µM
[16] = second compound 0.316 µM, first compound 1 µM
[17] = second compound 0.316 µM, first compound 3.16 µM
[18] = second compound 0.316 µM, first compound 10 µM
[19] = second compound 1 µM, first compound 0.0316 µM
[20] = second compound 1 µM, first compound 0.1 µM
[21] = second compound 1 µM, first compound 0.316 µM
[22] = second compound 1 µM, first compound 1 µM
[23] = second compound 1 µM, first compound 3.16 µM
[24] = second compound 1 µM, first compound 10 µM
[25] = second compound 3.16 µM, first compound 0.0316 µM
[26] = second compound 3.16 µM, first compound 0.1 µM
[27] = second compound 3.16 µM, first compound 0.316 µM
[28] = second compound 3.16 µM, first compound 1 µM
[29] = second compound 3.16 µM, first compound 3.16 µM
[30] = second compound 3.16 µM, first compound 10 µM
[31] = second compound 10 µM, first compound 0.0316 µM
[32] = second compound 10 µM, first compound 0.1 µM
[33] = second compound 10 µM, first compound 0.316 µM
[34] = second compound 10 µM, first compound 1 µM
[35] = second compound 10 µM, first compound 3.16 µM
[36] = second compound 10 µM, first compound 10 µM
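Note: compound exposure lasted seven days before viability was read.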
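Throughout, for viability, T/C: percent of vehicle DMSO treated spheroid viability so 100% = untreated.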

## CC1(C)CCC(CN2CCN(c3ccc(C(=O)NS(=O)(=O)c4ccc(NCC5CCOCC5)c([N+](=O)[O-])c4)c(Oc4cnc5[nH]ccc5c4)c3)CC2)=C(c2ccc(Cl)cc2)C1 + Cc1nc(NC(=O)N2CCCC2C(N)=O)sc1-c1ccnc(C(C)(C)C(F)(F)F)c1
Second compound 0.0316 µM
  IC50: 6.77 µM
Second compound 0.1 µM
  IC50: 7.42 µM
Second compound 0.316 µM
  IC50: 6.51 µM
Second compound 1 µM
  IC50: 5.32 µM
Second compound 3.16 µM
  IC50: 4.25 µM
Second compound 10 µM
  IC50: < 0.0316 µM
[1]
  viability, T/C: 85.1%
[2]
  viability, T/C: 97.9%
[3]
  viability, T/C: 91.5%
[4]
  viability, T/C: 80.6%
[5]
  viability, T/C: 87.7%
[6]
  viability, T/C: 30.7%
[7]
  viability, T/C: 81.9%
[8]
  viability, T/C: 97.5%
[9]
  viability, T/C: 89.3%
[10]
  viability, T/C: 99.4%
[11]
  viability, T/C: 101%
[12]
  viability, T/C: 34.6%
[13]
  viability, T/C: 96.3%
[14]
  viability, T/C: 99%
[15]
  viability, T/C: 76.5%
[16]
  viability, T/C: 55.2%
[17]
  viability, T/C: 92.4%
[18]
  viability, T/C: 29.8%
[19]
  viability, T/C: 82%
[20]
  viability, T/C: 75.5%
[21]
  viability, T/C: 72.4%
[22]
  viability, T/C: 57.4%
[23]
  viability, T/C: 70.8%
[24]
  viability, T/C: 25.4%
[25]
  viability, T/C: 52.3%
[26]
  viability, T/C: 67%
[27]
  viability, T/C: 53.5%
[28]
  viability, T/C: 58.6%
[29]
  viability, T/C: 60%
[30]
  viability, T/C: 26.2%
[31]
  viability, T/C: 38.1%
[32]
  viability, T/C: 42.1%
[33]
  viability, T/C: 36.6%
[34]
  viability, T/C: 44.4%
[35]
  viability, T/C: 48%
[36]
  viability, T/C: 31.4%

## C[C@@H](NC(=O)c1ncnc(N)c1Cl)c1ncc(C(=O)Nc2cc(C(F)(F)F)c(Cl)cn2)s1 + Cc1nc(NC(=O)N2CCCC2C(N)=O)sc1-c1ccnc(C(C)(C)C(F)(F)F)c1
Second compound 0.0316 µM
  IC50: > 10 µM
Second compound 0.1 µM
  IC50: > 10 µM
Second compound 0.316 µM
  IC50: > 10 µM
Second compound 1 µM
  IC50: > 10 µM
Second compound 3.16 µM
  IC50: 6.67 µM
Second compound 10 µM
  IC50: 0.272 µM
[1]
  viability, T/C: 112%
[2]
  viability, T/C: 100%
[3]
  viability, T/C: 98.7%
[4]
  viability, T/C: 88.1%
[5]
  viability, T/C: 90.7%
[6]
  viability, T/C: 81.6%
[7]
  viability, T/C: 94.1%
[8]
  viability, T/C: 108%
[9]
  viability, T/C: 101%
[10]
  viability, T/C: 115%
[11]
  viability, T/C: 95.5%
[12]
  viability, T/C: 68.6%
[13]
  viability, T/C: 104%
[14]
  viability, T/C: 108%
[15]
  viability, T/C: 109%
[16]
  viability, T/C: 87.8%
[17]
  viability, T/C: 89.8%
[18]
  viability, T/C: 78%
[19]
  viability, T/C: 105%
[20]
  viability, T/C: 80.4%
[21]
  viability, T/C: 87.4%
[22]
  viability, T/C: 89.5%
[23]
  viability, T/C: 79.9%
[24]
  viability, T/C: 68.2%
[25]
  viability, T/C: 53.6%
[26]
  viability, T/C: 55.6%
[27]
  viability, T/C: 79.6%
[28]
  viability, T/C: 62%
[29]
  viability, T/C: 61.9%
[30]
  viability, T/C: 31.2%
[31]
  viability, T/C: 50.6%
[32]
  viability, T/C: 63.9%
[33]
  viability, T/C: 41.4%
[34]
  viability, T/C: 44.5%
[35]
  viability, T/C: 37.2%
[36]
  viability, T/C: 22.8%
